In US9232795B2, “Herbicidal compositions comprising 4-amino-3-chloro-6-(4-chloro-2-fluoro-3-methoxyphenyl) pyridine-2-carboxylic acid or a derivative thereof and flurtamone” (Dow AgroSciences LLC, priority 2012, dated 2016):

What was measured:
Type in all cases: in vivo
Viola tricolor L. = assay: greenhouse trial, foliar applied compositions, VIOTR (wild violet)
Text: (§1) More specifically, the following equation is used to calculate the expected activity of mixtures containing two herbicidal active ingredients: Expected=A+B−(A×B/100) A=observed efficacy of a first active ingredient at the same concentration as used in the mixture; B=observed efficacy of the second active ingredient (or product, which may contain a combination of active ingredients) at the same concentration as used in the mixture. For mixtures containing three herbicidal active ingredients, the following equation can be used to calculate the expected activity: Expected=100−[(100−A)(100−B)(100−C)/10,000] A=observed efficacy of a first active ingredient at the same concentration as used in the mixture; B=observed efficacy of a second active ingredient B at the same concentration as used in the mixture; C=observed efficacy of a third active ingredient C at the same concentration as used in the mixture.
(§2) Results in Tables 1-12 are greenhouse trial results for foliar applied compositions.
(§3) g/ha=grams acid equivalent per hectare for Cmpd 1 and grams active ingredient per hectare for flurtamone, flufenacet, and diflufenican Obs=observed value Exp=expected value as calculated by the equations set forth above. Cmpd 1=methyl 4-amino-3-chloro-6-(4-chloro-2-fluoro-3-methoxyphenyl)-pyridine-2-carboxylate

[1] = system: Cirsium arvense (L.) Scop.; assay: greenhouse trial, foliar applied compositions, CIRAR (Canada thistle)
Text: as §1, §2, §3

[2] = system: Amaranthus retroflexus L.; assay: greenhouse trial, foliar applied compositions, AMARE (redroot pigweed)
Text: as §1, §2, §3

Ipomoea hederacea = assay: greenhouse trial, foliar applied compositions, IPOHE (ivyleaf morningglory)
Text: as §1, §2, §3

Euphorbia heterohylla L. = assay: greenhouse trial, foliar applied compositions, EPHHL (wild poinsettia)
Text: as §1, §2, §3

Setaria faberi Herrm. = assay: greenhouse trial, foliar applied compositions, SETFA (giant foxtail)
Text: as §1, §2, §3

[3] = system: Abutilon theophrasti Medik.; assay: greenhouse trial, foliar applied compositions, ABUTH (velvetleaf)
Text: as §1, §2, §3

Chenpodium album L. = assay: greenhouse trial, foliar applied compositions, CHEAL (common lambsquarters)
Text: as §1, §2, §3

[4] = system: Stellaria media (L.) Vill.; assay: greenhouse trial, foliar applied compositions, STEME (common chickweed)
Text: as §1, §2, §3

[5] = system: Triticum aestivum (spring); assay: greenhouse trial, foliar applied compositions, TRZAS (spring wheat)
Text: as §1, §2, §3

Cyperus esculentus L. = assay: greenhouse trial, foliar applied compositions, CYPES (yellow nutsedge)
Text: as §1, §2, §3

[6] = foliar applied, Cmpd 1 5.00 g/ha

O=C(Nc1ccc(F)cc1F)c1cccnc1Oc1cccc(C(F)(F)F)c1 [Diflufenican, N-(2,4-difluorophenyl)-2-[3-(trifluromethyl)phenoxy]-3-pyridinecarboxamide]
VIOTR Obs (Viola tricolor L.; Diflufenican 25 g/ha): 10 | VIOTR Obs (Viola tricolor L.; Diflufenican 50 g/ha): 15 | CIRAR Obs ([1]; Diflufenican 25 g/ha): 28 | CIRAR Obs ([1]; Diflufenican 50 g/ha): 25 | AMARE Obs ([2]; Diflufenican 25 g/ha): 25 | AMARE Obs ([2]; Diflufenican 50 g/ha): 50 | IPOHE Obs (Ipomoea hederacea; Diflufenican 25 g/ha): 10 | IPOHE Obs (Ipomoea hederacea; Diflufenican 50 g/ha): 13 | EPHHL Obs (Euphorbia heterohylla L.; Diflufenican 25 g/ha): 43 | EPHHL Obs (Euphorbia heterohylla L.; Diflufenican 50 g/ha): 50 | SETFA Obs (Setaria faberi Herrm.; Diflufenican 25 g/ha): 8 | SETFA Obs (Setaria faberi Herrm.; Diflufenican 50 g/ha): 5 | ABUTH Obs ([3]; Diflufenican 25 g/ha): 15 | ABUTH Obs ([3]; Diflufenican 50 g/ha): 15 | CHEAL Obs (Chenpodium album L.; Diflufenican 25 g/ha): 25 | CHEAL Obs (Chenpodium album L.; Diflufenican 50 g/ha): 25 | STEME Obs ([4]; Diflufenican 25 g/ha): 10 | STEME Obs ([4]; Diflufenican 50 g/ha): 15 | TRZAS Obs ([5]; Diflufenican 25 g/ha): 0 | TRZAS Obs ([5]; Diflufenican 50 g/ha): 0 | CYPES Obs (Cyperus esculentus L.; Diflufenican 25 g/ha): 0 | CYPES Obs (Cyperus esculentus L.; Diflufenican 50 g/ha): 0

CC(C)N(C(=O)COc1nnc(C(F)(F)F)s1)c1ccc(F)cc1 [Flufenacet, N-(4-fluorophenyl)-N-(1-methylethyl)-2-[[5-(trifluoromethyl)-1,3,4-thiadiazol-2-yl]oxy]acetamide]
VIOTR Obs (Viola tricolor L.; Flufenacet 30 g/ha): 0 | VIOTR Obs (Viola tricolor L.; Flufenacet 60 g/ha): 0 | CIRAR Obs ([1]; Flufenacet 30 g/ha): 0 | CIRAR Obs ([1]; Flufenacet 60 g/ha): 0 | AMARE Obs ([2]; Flufenacet 30 g/ha): 0 | AMARE Obs ([2]; Flufenacet 60 g/ha): 0 | IPOHE Obs (Ipomoea hederacea; Flufenacet 30 g/ha): 0 | IPOHE Obs (Ipomoea hederacea; Flufenacet 60 g/ha): 0 | EPHHL Obs (Euphorbia heterohylla L.; Flufenacet 30 g/ha): 0 | EPHHL Obs (Euphorbia heterohylla L.; Flufenacet 60 g/ha): 0 | SETFA Obs (Setaria faberi Herrm.; Flufenacet 30 g/ha): 0 | SETFA Obs (Setaria faberi Herrm.; Flufenacet 60 g/ha): 0 | ABUTH Obs ([3]; Flufenacet 30 g/ha): 0 | ABUTH Obs ([3]; Flufenacet 60 g/ha): 0 | CHEAL Obs (Chenpodium album L.; Flufenacet 30 g/ha): 0 | CHEAL Obs (Chenpodium album L.; Flufenacet 60 g/ha): 0 | STEME Obs ([4]; Flufenacet 30 g/ha): 0 | STEME Obs ([4]; Flufenacet 60 g/ha): 0 | TRZAS Obs ([5]; Flufenacet 30 g/ha): 0 | TRZAS Obs ([5]; Flufenacet 60 g/ha): 0 | CYPES Obs (Cyperus esculentus L.; Flufenacet 30 g/ha): 0 | CYPES Obs (Cyperus esculentus L.; Flufenacet 60 g/ha): 0

CNC1=C(c2cccc(C(F)(F)F)c2)C(=O)C(c2ccccc2)O1 (racemic) [Flurtamone, (±)-5-(methylamino)-2-phenyl-4-[3-(trifluoromethyl)phenyl]-3(2H)-furanone]
VIOTR Obs (Viola tricolor L.; Flurtamone 62.5 g/ha): 25 | VIOTR Obs (Viola tricolor L.; Flurtamone 125 g/ha): 30 | CIRAR Obs ([1]; Flurtamone 62.5 g/ha): 88 | CIRAR Obs ([1]; Flurtamone 125 g/ha): 95 | AMARE Obs ([2]; Flurtamone 62.5 g/ha): 40 | AMARE Obs ([2]; Flurtamone 125 g/ha): 65 | IPOHE Obs (Ipomoea hederacea; Flurtamone 62.5 g/ha): 25 | IPOHE Obs (Ipomoea hederacea; Flurtamone 125 g/ha): 33 | EPHHL Obs (Euphorbia heterohylla L.; Flurtamone 62.5 g/ha): 25 | EPHHL Obs (Euphorbia heterohylla L.; Flurtamone 125 g/ha): 40 | SETFA Obs (Setaria faberi Herrm.; Flurtamone 62.5 g/ha): 0 | SETFA Obs (Setaria faberi Herrm.; Flurtamone 125 g/ha): 10 | ABUTH Obs ([3]; Flurtamone 62.5 g/ha): 40 | ABUTH Obs ([3]; Flurtamone 125 g/ha): 63 | CHEAL Obs (Chenpodium album L.; Flurtamone 62.5 g/ha): 25 | CHEAL Obs (Chenpodium album L.; Flurtamone 125 g/ha): 40 | STEME Obs ([4]; Flurtamone 62.5 g/ha): 20 | STEME Obs ([4]; Flurtamone 125 g/ha): 30 | TRZAS Obs ([5]; Flurtamone 62.5 g/ha): 0 | TRZAS Obs ([5]; Flurtamone 125 g/ha): 0 | CYPES Obs (Cyperus esculentus L.; Flurtamone 62.5 g/ha): 5 | CYPES Obs (Cyperus esculentus L.; Flurtamone 125 g/ha): 8

COC(=O)c1nc(-c2ccc(Cl)c(OC)c2F)cc(N)c1Cl [Cmpd 1, methyl 4-amino-3-chloro-6-(4-chloro-2-fluoro-3-methoxyphenyl)-pyridine-2-carboxylate]
VIOTR Obs (Viola tricolor L.; Cmpd 1 1.25 g/ha): 5 | VIOTR Obs (Viola tricolor L.; Cmpd 1 2.50 g/ha): 15 | VIOTR Obs (Viola tricolor L.; Cmpd 1 5.00 g/ha): 23 | VIOTR Obs (Viola tricolor L.; [6]): 23 | CIRAR Obs ([1]; Cmpd 1 1.25 g/ha): 20 | CIRAR Obs ([1]; Cmpd 1 2.50 g/ha): 55 | CIRAR Obs ([1]; Cmpd 1 5.00 g/ha): 75 | CIRAR Obs [1, 6]: 75 | AMARE Obs ([2]; Cmpd 1 1.25 g/ha): 30 | AMARE Obs ([2]; Cmpd 1 2.50 g/ha): 93 | AMARE Obs ([2]; Cmpd 1 5.00 g/ha): 78 | AMARE Obs [2, 6]: 78 | IPOHE Obs (Ipomoea hederacea; Cmpd 1 1.25 g/ha): 15 | IPOHE Obs (Ipomoea hederacea; Cmpd 1 2.50 g/ha): 15 | IPOHE Obs (Ipomoea hederacea; Cmpd 1 5.00 g/ha): 35 | EPHHL Obs (Euphorbia heterohylla L.; Cmpd 1 1.25 g/ha): 60 | EPHHL Obs (Euphorbia heterohylla L.; Cmpd 1 2.50 g/ha): 89 | EPHHL Obs (Euphorbia heterohylla L.; Cmpd 1 5.00 g/ha): 92 | EPHHL Obs (Euphorbia heterohylla L.; [6]): 92 | SETFA Obs (Setaria faberi Herrm.; Cmpd 1 1.25 g/ha): 0 | SETFA Obs (Setaria faberi Herrm.; Cmpd 1 2.50 g/ha): 5 | SETFA Obs (Setaria faberi Herrm.; Cmpd 1 5.00 g/ha): 0 | ABUTH Obs ([3]; Cmpd 1 1.25 g/ha): 78 | ABUTH Obs ([3]; Cmpd 1 2.50 g/ha): 91 | ABUTH Obs ([3]; Cmpd 1 5.00 g/ha): 98 | CHEAL Obs (Chenpodium album L.; Cmpd 1 1.25 g/ha): 60 | CHEAL Obs (Chenpodium album L.; Cmpd 1 2.50 g/ha): 83 | CHEAL Obs (Chenpodium album L.; Cmpd 1 5.00 g/ha): 85 | CHEAL Obs (Chenpodium album L.; [6]): 85 | STEME Obs ([4]; Cmpd 1 1.25 g/ha): 20 | STEME Obs ([4]; Cmpd 1 2.50 g/ha): 58 | STEME Obs ([4]; Cmpd 1 5.00 g/ha): 65 | STEME Obs [4, 6]: 65 | TRZAS Obs ([5]; Cmpd 1 1.25 g/ha): 0 | TRZAS Obs ([5]; Cmpd 1 2.50 g/ha): 0 | TRZAS Obs ([5]; Cmpd 1 5.00 g/ha): 0 | CYPES Obs (Cyperus esculentus L.; Cmpd 1 1.25 g/ha): 58 | CYPES Obs (Cyperus esculentus L.; Cmpd 1 2.50 g/ha): 85 | CYPES Obs (Cyperus esculentus L.; Cmpd 1 5.00 g/ha): 81 | CYPES Obs (Cyperus esculentus L.; [6]): 81
